# Test results reported in ChEMBL document CHEMBL1201862, “PubChem BioAssay data set” (2004).
# Where a name gives a salt, the structure may show the parent alone. Calls of active or inactive are those of the source.
# Assays:
# [1] = target: Genome polyprotein (dengue virus type 2, UniProt P29990); assay: Dengue-2 NS5 methyltransferase inhibitors, primary screen, biochemical, confirmation dose response (AID 588689); type: functional
# [2] = target: T1, Hepatocyte nuclear factor 4-alpha (Homo sapiens, UniProt P41235); type: functional, cell-based;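 also: biochemical luminescence-based dose-response counterscreen measuring inhibition of HNF4 dimerization, run alongside a screen for blockers of ABHD5–perilipin-5 interaction; split luciferase complementation of HNF4 fusion proteins in cell lysate measuring dimerization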
# T1 sequence (P41235 whole entry): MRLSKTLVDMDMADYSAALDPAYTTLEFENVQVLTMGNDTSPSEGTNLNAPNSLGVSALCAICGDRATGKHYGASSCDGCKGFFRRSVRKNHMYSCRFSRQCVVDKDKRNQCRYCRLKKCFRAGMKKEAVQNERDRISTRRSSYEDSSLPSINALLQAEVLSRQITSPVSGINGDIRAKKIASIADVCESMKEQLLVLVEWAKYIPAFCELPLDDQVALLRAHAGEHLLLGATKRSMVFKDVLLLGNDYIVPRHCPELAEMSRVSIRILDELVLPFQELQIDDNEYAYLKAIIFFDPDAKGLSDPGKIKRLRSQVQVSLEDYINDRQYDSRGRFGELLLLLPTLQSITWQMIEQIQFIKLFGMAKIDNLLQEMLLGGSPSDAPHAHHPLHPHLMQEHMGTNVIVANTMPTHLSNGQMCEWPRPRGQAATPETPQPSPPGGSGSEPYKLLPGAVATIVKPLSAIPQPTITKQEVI
# [3] = target: Nuclear receptor subfamily 5 group A member 2 (Homo sapiens, UniProt O00482); type: functional, cell-based;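 also: HEK293T cells transfected with LRH-1 and a StAR promoter luciferase reporter; potency for inhibitors that lower LRH-1 driven reporter light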
# [4] = target: Steroidogenic factor 1 (Homo sapiens, UniProt Q13285); assay: Counterscreen for inverse agonists of the liver receptor homolog-1 (LRH-1; NR5A2): Luminescence-based cell-based high throughput dose response assay to identify inverse agonists of the Steroidogenic Factor 1 Nuclear Receptor (SF1; NR5A1).; type: functional
# [5] = StAR promoter reporter inhibition counter-screen, dose response, counter-screen for LRH-1 inverse agonist project, cell-based, luminescence, luciferase reporter (AID 651969); type: functional
# [6] = target: T2, Sentrin-specific protease 8 (Homo sapiens, UniProt Q96LD8); assay: SENP8 protease inhibitors, SAR follow-up, biochemical, luminescence (AID 504501); type: functional
# T2 sequence (Q96LD8 whole entry): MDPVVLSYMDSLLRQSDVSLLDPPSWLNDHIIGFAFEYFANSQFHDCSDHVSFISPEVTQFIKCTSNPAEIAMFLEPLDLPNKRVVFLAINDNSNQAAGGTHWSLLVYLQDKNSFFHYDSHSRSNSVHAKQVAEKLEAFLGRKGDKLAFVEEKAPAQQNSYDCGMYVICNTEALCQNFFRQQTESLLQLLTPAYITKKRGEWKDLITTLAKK
# [7] = target: T3, Caspase-3 (Homo sapiens, UniProt P42574); assay: SAR Analysis of small molecule inhibitors of Sentrin-specific proteases (SENPs) using a Caspase-3 Selectivity assay. [Related pubchem assays (depositor defined):AID2540, AID2599, AID434973, AID489001]; type: functional
# T3 sequence (P42574 whole entry): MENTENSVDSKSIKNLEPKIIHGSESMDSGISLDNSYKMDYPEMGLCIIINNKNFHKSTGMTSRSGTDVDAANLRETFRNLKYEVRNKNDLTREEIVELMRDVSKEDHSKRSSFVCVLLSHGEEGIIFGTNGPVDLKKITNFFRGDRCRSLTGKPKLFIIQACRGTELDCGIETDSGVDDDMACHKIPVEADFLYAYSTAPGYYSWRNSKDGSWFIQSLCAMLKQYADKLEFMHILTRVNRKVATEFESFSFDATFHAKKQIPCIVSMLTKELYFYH
# [8] = target: T4, Sentrin-specific protease 6 (Homo sapiens, UniProt Q9GZR1); assay: SAR Analysis of small molecule inhibitors of Sentrin-specific protease 6 (SENP6) using a Luminescent assay. [Related pubchem assays (depositor defined):AID2582, AID2599]; type: functional
# T4 sequence (Q9GZR1 whole entry): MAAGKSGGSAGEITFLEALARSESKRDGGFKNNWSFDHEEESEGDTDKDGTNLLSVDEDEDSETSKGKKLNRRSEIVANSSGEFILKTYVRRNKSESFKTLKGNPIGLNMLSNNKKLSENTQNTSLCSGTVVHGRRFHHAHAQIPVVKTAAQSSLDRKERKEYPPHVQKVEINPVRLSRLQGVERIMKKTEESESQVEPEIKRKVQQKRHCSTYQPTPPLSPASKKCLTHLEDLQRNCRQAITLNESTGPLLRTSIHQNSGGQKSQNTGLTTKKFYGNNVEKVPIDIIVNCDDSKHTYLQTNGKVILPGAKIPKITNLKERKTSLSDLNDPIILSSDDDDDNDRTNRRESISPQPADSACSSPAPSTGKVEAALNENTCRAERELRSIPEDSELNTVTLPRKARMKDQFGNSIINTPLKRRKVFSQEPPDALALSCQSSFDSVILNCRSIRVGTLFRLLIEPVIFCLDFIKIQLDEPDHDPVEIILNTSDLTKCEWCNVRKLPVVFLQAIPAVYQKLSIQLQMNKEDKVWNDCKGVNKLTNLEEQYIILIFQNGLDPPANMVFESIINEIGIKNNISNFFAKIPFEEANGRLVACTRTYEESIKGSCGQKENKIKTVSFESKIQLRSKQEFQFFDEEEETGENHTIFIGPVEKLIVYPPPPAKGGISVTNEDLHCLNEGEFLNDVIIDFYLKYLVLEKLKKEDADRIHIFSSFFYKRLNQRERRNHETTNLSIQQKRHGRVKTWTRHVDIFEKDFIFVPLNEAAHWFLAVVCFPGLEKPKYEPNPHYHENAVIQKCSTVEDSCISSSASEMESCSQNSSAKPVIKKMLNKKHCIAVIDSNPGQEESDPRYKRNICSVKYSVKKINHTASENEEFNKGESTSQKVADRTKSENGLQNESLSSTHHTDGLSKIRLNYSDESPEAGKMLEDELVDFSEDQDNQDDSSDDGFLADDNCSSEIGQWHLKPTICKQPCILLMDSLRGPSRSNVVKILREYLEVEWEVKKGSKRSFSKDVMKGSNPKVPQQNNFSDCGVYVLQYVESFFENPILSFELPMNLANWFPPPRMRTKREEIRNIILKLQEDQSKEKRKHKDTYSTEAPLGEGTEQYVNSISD
# [9] = target: T5, Sentrin-specific protease 7 (Homo sapiens, UniProt Q9BQF6); assay: SENP7 protease inhibitors, SAR follow-up, biochemical, luminescence (AID 504497); type: functional
# T5 sequence (Q9BQF6 whole entry): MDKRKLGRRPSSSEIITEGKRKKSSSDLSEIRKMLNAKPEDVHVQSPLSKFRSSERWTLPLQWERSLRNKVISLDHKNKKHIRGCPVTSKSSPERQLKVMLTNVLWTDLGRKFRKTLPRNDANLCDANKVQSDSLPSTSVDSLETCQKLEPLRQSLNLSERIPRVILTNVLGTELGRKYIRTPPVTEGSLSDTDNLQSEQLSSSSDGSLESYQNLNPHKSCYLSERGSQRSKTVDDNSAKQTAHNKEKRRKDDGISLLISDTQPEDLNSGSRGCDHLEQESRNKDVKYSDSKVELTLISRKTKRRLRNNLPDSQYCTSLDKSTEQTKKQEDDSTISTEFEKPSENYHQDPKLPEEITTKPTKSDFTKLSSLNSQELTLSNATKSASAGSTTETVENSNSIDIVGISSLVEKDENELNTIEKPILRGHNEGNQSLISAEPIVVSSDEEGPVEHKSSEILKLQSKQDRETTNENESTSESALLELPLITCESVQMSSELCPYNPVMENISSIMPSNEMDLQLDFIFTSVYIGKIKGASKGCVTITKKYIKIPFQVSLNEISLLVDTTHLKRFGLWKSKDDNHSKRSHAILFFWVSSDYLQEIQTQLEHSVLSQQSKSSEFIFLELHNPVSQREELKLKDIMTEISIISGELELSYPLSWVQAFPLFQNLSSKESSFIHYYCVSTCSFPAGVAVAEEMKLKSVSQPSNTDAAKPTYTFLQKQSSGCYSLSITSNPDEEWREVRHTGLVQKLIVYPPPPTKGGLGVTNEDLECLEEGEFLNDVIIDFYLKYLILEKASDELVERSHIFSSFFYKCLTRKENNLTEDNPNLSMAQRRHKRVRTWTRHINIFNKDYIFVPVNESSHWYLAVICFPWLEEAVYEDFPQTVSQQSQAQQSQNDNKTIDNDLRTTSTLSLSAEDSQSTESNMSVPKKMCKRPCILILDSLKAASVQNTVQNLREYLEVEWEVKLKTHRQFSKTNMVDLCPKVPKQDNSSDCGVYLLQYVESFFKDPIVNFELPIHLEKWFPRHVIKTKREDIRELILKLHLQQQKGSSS
# [10] = target: T6, Probable nicotinate-nucleotide adenylyltransferase (Staphylococcus aureus (strain N315), UniProt P65502); type: functional, Staphylococcus aureus subsp. aureus N315;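 as to IC50 Mean: confirmatory dose-response retesting of NadD inhibitor hits first found in an ultra-high-throughput screen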
# [11] = target: T6, Probable nicotinate-nucleotide adenylyltransferase; type: functional, Staphylococcus aureus subsp. aureus N315; details: read-out: IC50_Mean
# [12] = target: Melanocortin receptor 4 (Homo sapiens, UniProt P32245); type: functional, cell-based;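 also: Cell-based assay with luminescence read-out, confirmatory dose-response testing for agonist activity of biased ligands at MC4R; human U2OS cells with tagged receptor and beta-arrestin; potency of agonists that increase receptor coupling to beta-arrestin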
# [13] = test system: Streptococcus sp. 'group A'; assay: growth inhibition of control SK(-) GAS strain, dose response, counter-screen for streptokinase expression inhibitor project, luminescence, kanamycin, BacTiterGlo, confirmation (AID 1900); type: functional, organism-based
# [14] = target: T7, Streptokinase A (Streptococcus pyogenes serotype M1, UniProt P10520); assay: S. pyogenes streptokinase expression inhibitors, potency, dose response, plasminogen activation absorbance, OD405 (AID 1914); type: functional, Streptococcus pyogenes M1 GAS;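 also: secreted streptokinase activity via plasminogen activation per viability signal from cell pellet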
# T7 sequence (P10520 whole entry): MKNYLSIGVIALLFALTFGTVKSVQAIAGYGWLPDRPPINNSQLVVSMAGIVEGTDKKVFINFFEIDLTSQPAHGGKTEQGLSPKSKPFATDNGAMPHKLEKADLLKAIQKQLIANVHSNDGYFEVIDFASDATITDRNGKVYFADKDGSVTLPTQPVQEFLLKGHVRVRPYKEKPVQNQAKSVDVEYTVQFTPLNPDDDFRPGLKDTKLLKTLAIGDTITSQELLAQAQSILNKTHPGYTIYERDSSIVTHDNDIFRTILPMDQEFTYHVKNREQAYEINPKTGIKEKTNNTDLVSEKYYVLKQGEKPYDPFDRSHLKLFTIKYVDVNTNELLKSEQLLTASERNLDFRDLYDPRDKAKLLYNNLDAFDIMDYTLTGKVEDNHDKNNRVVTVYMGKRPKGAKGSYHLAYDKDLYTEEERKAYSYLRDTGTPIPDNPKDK
# [15] = inhibitors of intracellular T. cruzi replication, confirmation, NIH3T3 host cells, beta-gal luminescence (AID 2044); type: functional, cell-based;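 also: intracellular parasites grown in NIH/3T3 mouse fibroblasts as host cells; luminescent beta-galactosidase reporter signal from transgenic T. cruzi replicating inside host cells; inhibitors lower the luminescence signal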
# [16] = cytotoxicity toward NIH3T3 fibroblasts, dose response, counter-screen, cell-based, ATP luminescence, mouse fibroblasts (AID 2010); type: functional;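 also: cells exposed to compound for about 90 hours before reading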
# [17] = test system: Streptococcus; assay: Group A Streptococcus viability loss, dose response, counter-screen for streptokinase expression inhibitor project, luminescence, BacTiterGlo (AID 1915); type: functional, organism-based;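 also: potency for reduction of bacterial viability or growth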
# Chain of Nuclear receptor subfamily 5 group A member 2 (O00482 whole entry): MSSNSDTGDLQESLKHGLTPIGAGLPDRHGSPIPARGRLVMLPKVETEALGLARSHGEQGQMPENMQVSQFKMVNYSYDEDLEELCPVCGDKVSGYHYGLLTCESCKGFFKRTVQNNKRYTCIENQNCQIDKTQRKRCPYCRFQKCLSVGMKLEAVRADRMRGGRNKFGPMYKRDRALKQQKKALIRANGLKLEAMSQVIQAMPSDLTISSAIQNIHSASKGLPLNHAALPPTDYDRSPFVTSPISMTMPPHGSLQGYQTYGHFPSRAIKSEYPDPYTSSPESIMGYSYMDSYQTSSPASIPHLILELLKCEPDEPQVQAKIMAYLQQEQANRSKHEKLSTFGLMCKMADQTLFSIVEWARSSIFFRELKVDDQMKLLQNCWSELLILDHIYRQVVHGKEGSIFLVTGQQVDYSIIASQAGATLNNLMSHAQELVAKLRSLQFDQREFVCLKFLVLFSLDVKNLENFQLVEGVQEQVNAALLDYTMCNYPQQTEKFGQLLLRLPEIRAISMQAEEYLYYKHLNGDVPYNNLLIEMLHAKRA
# Chain of Steroidogenic factor 1 (Q13285 whole entry): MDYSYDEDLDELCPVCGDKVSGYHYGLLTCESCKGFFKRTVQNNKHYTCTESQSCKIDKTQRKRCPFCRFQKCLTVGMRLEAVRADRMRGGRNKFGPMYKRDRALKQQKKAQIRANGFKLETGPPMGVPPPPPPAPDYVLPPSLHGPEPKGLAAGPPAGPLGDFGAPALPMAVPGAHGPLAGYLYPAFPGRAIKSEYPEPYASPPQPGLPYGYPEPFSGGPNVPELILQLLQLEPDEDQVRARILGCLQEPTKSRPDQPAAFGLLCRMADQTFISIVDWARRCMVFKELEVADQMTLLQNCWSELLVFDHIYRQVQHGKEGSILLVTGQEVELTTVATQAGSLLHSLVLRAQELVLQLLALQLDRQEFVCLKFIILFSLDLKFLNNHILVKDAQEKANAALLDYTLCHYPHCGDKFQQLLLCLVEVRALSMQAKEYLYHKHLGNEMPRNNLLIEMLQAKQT
# Chain of Melanocortin receptor 4 (P32245 whole entry): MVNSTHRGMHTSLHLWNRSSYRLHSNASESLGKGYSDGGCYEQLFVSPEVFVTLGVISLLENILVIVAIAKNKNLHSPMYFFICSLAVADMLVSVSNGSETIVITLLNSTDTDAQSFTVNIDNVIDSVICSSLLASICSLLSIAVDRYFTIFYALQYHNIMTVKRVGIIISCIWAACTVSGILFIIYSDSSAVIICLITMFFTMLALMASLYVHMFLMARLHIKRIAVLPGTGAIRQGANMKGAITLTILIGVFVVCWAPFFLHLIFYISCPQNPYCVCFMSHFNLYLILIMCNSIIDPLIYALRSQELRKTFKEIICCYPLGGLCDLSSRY
# T6 sequence (P65502 whole entry): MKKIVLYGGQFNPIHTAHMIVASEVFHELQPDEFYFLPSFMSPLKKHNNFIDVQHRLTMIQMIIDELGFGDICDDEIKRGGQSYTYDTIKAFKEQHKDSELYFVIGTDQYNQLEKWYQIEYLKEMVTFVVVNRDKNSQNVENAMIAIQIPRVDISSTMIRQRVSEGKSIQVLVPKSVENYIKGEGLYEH
# Chain of Genome polyprotein (P29990 2492-3391 limits assumed): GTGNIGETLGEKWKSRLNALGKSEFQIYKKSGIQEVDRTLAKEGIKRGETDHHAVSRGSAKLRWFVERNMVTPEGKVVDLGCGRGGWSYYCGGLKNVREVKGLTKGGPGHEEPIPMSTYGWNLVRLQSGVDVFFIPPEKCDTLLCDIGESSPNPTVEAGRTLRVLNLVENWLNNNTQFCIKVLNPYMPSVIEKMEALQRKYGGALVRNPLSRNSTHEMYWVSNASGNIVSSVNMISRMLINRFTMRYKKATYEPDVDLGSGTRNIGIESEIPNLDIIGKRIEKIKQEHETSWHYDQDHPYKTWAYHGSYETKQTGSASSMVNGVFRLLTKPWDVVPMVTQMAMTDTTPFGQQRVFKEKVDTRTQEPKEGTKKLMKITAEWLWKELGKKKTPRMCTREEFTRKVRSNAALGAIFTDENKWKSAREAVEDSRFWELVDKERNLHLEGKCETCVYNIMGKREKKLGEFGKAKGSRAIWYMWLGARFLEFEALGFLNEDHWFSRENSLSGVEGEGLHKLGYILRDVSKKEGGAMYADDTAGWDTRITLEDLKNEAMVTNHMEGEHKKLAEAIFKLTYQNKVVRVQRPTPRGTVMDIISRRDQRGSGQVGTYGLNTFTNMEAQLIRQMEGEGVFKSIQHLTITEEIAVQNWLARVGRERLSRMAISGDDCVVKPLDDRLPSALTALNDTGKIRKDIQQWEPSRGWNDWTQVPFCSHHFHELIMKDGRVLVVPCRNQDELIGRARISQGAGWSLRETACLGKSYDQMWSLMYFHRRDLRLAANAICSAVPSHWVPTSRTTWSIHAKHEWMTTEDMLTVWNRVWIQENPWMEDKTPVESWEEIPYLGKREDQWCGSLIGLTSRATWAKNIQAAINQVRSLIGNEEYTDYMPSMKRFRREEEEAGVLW
smiles,measurement,setting,value
O=C1NC(=O)N(c2ccccc2F)C(=O)/C1=C/c1ccc(Oc2ccc([N+](=O)[O-])cn2)cc1,IC50,[1],56.1 µM (active)
same,IC50,[2],1.88 µM (active)
Cc1ccc(C)c(NC(=O)CSc2nnc(-c3[nH]nc4ccccc34)o2)c1,IC50,[3],53.5 µM (inactive)
same,IC50,[4],5.07 µM (active)
same,IC50,[5],35.9 µM (inactive)
CCOc1ccc(CCNC(=O)CN2C(=O)NC3(CCc4ccccc43)C2=O)cc1OCC (configuration not stated),IC50,[3],16.7 µM (inactive)
same,IC50,[4],4.33 µM (active)
same,IC50,[5],35.9 µM (inactive)
Cc1ccc2nc(NC(=O)c3cc(=O)c4cc(C)c(C)cc4o3)sc2c1,IC50,[6],> 99 µM (inactive)
same,IC50,[7],> 99 µM (inactive)
same,IC50,[8],> 99 µM (inactive)
same,IC50,[9],> 99 µM (inactive)
Cc1ccc(-n2nc3c(c2NC(=O)c2ccc(Br)o2)CSC3)c(C)c1,IC50,[10],2.11 µM (active)
same,IC50,[11],8.03 µM (active)
CCOc1ccc(Cc2nnc(SCC(=O)Nc3ccc(C(C)=O)cc3)nc2O)cc1,IC50,[3],13.5 µM (inactive)
same,IC50,[4],5.1 µM (active)
same,IC50,[5],35.9 µM (inactive)
Cc1ccc(NC(=O)c2ncn(CCCN3CCN(Cc4cccc5ccccc45)CC3)n2)cc1C,EC50,[12],> 89.2 µM (inactive)
CC(C)CC(=O)Nc1ccc(-c2nc3cc(Cl)ccc3s2)cc1,IC50,[6],> 99 µM (inactive)
same,IC50,[7],> 99 µM (inactive)
same,IC50,[8],> 99 µM (inactive)
same,IC50,[9],82.7 µM (active)
Cc1cccnc1C(NC(=O)C1CCN(CCOc2ccc(Cl)cc2Cl)CC1)c1ccc(Cl)cc1 (configuration not stated),EC50,[12],> 89.2 µM (inactive)
NC(Cc1ccc(C(F)(F)F)cc1)c1csc(Nc2nccc(C(F)(F)F)n2)n1 (configuration not stated),EC50,[12],> 89.2 µM (inactive)
COc1ccc(CCNC(=O)CN2C(=O)NC3(CCCCC3)C2=O)cc1,IC50,[3],16.5 µM (inactive)
same,IC50,[4],1.74 µM (active)
same,IC50,[5],35.9 µM (inactive)
Fc1cc(F)cc(-c2noc(/C=C/c3ccccc3Cl)n2)c1,IC50,[6],> 99 µM (inactive)
same,IC50,[7],> 99 µM (inactive)
same,IC50,[8],> 99 µM (inactive)
same,IC50,[9],> 99 µM (inactive)
O=C(NC1CCCCC1)C(c1ccccc1F)n1c(=O)c(-c2ccco2)nc2ccccc21 (configuration not stated),IC50,[2],1.84 µM (active)
Nc1ccc(-c2noc(/C=C/c3ccccc3)n2)cc1[N+](=O)[O-],IC50,[6],> 99 µM (inactive)
same,IC50,[7],> 99 µM (inactive)
same,IC50,[8],> 99 µM (inactive)
same,IC50,[9],> 99 µM (inactive)
CN(C)CCOc1ccc(/C(=C(/CCCl)c2ccccc2)c2ccccc2)cc1 [TOREMIFENE CITRATE],EC50,[13],5.82 µM (active)
same,EC50,[14],25.9 µM (active)
same,EC50,[15],28.4 µM (active)
same,EC50,[16],> 60 µM (not active)
same,EC50,[17],8.17 µM (active)
same,IC50,[2],7.87 µM (active)
